US7880007B2, “Bicyclic substituted phenyl piperidine modulators of muscarinic receptors” (Vertex Pharmaceuticals Incorporated, priority 2004, dated 2011)

Tests used:
Assay type in all cases: cell-based
M2 muscarinic receptor = molecular target: T1, M2 muscarinic receptor (Homo sapiens, UniProt P08172); test: Functional mobilization of intracellular calcium (FLIPR), M2-CHO cells; settings: for Emax: 100% efficacy = maximum response obtained with the Carbachol control; for M2 Activity: M2-CHO cells, calcium mobilization (FLIPR)
T1 construct: expressed in transfected cells; host or cells: CHO (M2-CHO)
T1 sequence (P08172 1-466): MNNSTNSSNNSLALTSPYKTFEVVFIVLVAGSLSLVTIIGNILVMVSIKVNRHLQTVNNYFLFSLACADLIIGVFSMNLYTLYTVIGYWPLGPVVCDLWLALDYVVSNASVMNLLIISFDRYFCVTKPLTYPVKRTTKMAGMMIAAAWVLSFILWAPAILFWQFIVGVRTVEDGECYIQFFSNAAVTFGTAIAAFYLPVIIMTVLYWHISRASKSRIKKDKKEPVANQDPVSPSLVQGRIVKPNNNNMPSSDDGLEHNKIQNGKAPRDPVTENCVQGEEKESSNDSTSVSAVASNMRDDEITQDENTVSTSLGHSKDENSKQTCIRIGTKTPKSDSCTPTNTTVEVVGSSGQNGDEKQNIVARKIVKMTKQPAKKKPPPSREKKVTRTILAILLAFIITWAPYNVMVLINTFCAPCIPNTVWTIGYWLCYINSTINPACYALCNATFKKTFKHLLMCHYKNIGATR
How it was run: (§1)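 Calcium mobilisation read by FLIPR over 60 s (ex 488/em 540 nm) in recombinant muscarinic CHO lines loaded with calcium dye plus 1 mM probenecid. Compounds tested as agonists alone, or as inhibitors against EC80 carbachol after 15 min pre-incubation or co-addition; 0.5% DMSO; efficacy scaled to carbachol maximal response.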

M4 muscarinic receptor = molecular target: T2, M4 muscarinic receptor (Homo sapiens, UniProt P08173); test: Functional mobilization of intracellular calcium (FLIPR), M4-CHO cells; settings: for Emax: 100% efficacy = maximum response obtained with the Carbachol control; for M4 Activity: M4-CHO cells, calcium mobilization (FLIPR)
T2 construct: expressed in transfected cells; host or cells: CHO (M4-CHO)
T2 sequence (P08173 1-479): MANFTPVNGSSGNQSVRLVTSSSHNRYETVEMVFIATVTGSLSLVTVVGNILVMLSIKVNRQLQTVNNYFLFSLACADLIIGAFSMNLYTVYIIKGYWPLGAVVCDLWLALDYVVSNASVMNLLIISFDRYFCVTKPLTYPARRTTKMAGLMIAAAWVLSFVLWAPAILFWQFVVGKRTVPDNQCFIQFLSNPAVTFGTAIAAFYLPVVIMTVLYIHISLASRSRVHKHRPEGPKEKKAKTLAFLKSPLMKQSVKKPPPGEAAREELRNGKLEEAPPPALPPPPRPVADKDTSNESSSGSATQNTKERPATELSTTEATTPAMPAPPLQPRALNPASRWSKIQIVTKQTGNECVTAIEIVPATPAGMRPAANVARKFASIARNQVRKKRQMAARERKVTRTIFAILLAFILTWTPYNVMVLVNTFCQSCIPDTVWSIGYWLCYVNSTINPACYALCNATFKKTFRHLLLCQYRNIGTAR
How it was run: as §1

M3 muscarinic receptor = molecular target: T3, M3 muscarinic receptor (Homo sapiens, UniProt P20309); test: Functional mobilization of intracellular calcium (FLIPR), M3-CHO cells; settings: for Emax: 100% efficacy = maximum response obtained with the Carbachol control; for M3 Activity: M3-CHO cells, calcium mobilization (FLIPR)
T3 construct: expressed in transfected cells; host or cells: CHO (M3-CHO)
T3 sequence (P20309 whole entry): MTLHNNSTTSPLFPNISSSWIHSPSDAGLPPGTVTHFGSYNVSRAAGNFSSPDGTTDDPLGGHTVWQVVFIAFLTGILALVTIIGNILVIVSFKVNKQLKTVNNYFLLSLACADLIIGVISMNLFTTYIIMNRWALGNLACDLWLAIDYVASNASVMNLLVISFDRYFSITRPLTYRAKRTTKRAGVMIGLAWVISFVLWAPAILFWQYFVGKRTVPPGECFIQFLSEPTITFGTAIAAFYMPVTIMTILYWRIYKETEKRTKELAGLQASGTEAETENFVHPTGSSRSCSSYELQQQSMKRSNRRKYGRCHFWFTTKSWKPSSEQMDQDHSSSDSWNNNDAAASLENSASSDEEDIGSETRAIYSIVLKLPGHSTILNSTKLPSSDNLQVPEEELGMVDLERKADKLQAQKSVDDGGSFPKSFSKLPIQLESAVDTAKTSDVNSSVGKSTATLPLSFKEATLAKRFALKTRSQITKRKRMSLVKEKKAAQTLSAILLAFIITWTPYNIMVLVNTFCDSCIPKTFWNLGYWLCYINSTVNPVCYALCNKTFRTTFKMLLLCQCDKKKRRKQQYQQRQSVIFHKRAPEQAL
Procedure: Functional Mobilization of Intracellular Calcium to Determine Muscarinic Receptor Activity:
CHO cells expressing muscarinic receptors (M1 to M5) are grown as monolayers in tissue culture flasks at 37° C. in a humidified atmosphere containing 5% CO2 and passaged every 3-5 days. The growth media is Dulbecco's modified eagles medium (DMEM, Gibco Cat #12430-054), containing 25 mM Hepes and supplemented with Fetal Bovine Serum (Hyclone, cat #SH30071.03), 0.1 mM of MEM non-essential amino acids (GIBCO, Cat #11140-050), 1 mM MEM Sodium Pyruvate (GIBCO Cat #11360-070) and 100 units/ml of Penicillin G and 100 μg/ml of Streptomycin (GIBCO Cat #15140-122). The recombinant muscarinic receptor cell lines are grown under antibiotic pressure with media containing 25 μg/ml zeocin and 500 μg/ml G418 (M1-CHO), 4 μg/ml puromycin, 50 μg/ml zeocin and 2.5 μg/ml blasticidin (M2 and M4-CHO) or 50 μg/ml zeocin and 4 μg/ml puromycin (M3 and M5-CHO).
Cells are harvested at 80-90% confluence using Versene (GIBCO Cat #15040-066), collected by centrifugation and seeded 18-24 hrs prior to running the calcium assay at a density of 5,000-10,000 cells/well in […], clear-bottomed 384-well plates (BD Biocoat, poly-D-lysine, Cat #356663). The day of the experiment, the cells are washed with a plate washer (Bioteck Instruments, ELX 405) using bath 1 buffer (140-mM NaCl, 4.5-mM KCl, 2-mM CaCl2, 1-mM MgCl2, 10-mM Hepes-Na, 10-mM Glucose, pH 7.4, with NaOH) containing 1 mM Probenecid. Next, the calcium dye Fluo-3 (25 μl/well of Fluo-3 AM at 4 μM, Molecular Probes F-1241, in Bath 1 buffer containing 1 mM Probenecid) is added to the 25 μl of Bath 1 remaining in each well after the plate wash and the dye is loaded at 37° C. in the tissue culture incubator for 60-90 min. The fluorescent dye is removed using the plate washer with Bath 1 containing 1 mM Probenecid, leaving 25 μl/well of this solution after the wash. Alternatively, cells can be loaded with the calcium indicator from Molecular Devices (Calcium 3 Assay Reagents, Cat #R7181) adding 5 μl of a 5× solution dye in Bath 1 containing 1 mM Probenecid (10 ml per dye flask cat #R7182 to generate a solution 20×) to 20 μl of the same buffer. After loading for 60 min, the experiment can be run without having to remove the dye.
Compounds are prepared at a 2× fold concentration in a 96-well plate (round bottom, Costar Corning cat #3656), by reconstituting the pre-spotted compounds in bath 1 containing 1 mM probenecid. The final concentration DMSO is 0.5%, and the amount of DMSO is normalized across the assay plate. To determine an agonist action of the compounds on muscarinic receptors, the reconstituted compounds are added (25 μl compound/well) to the cell assay plate (containing 25 μl/well) using the multi-channel robotic system of the FLIPR 3 Instrument (Molecular Devices, Sunnyvale, Calif.). To determine a functional inhibitory action of the compounds on muscarinic receptors, the reconstituted compounds are added (25 μl compound/well) to the assay plate and pre-incubated for 15 min prior to adding 25 μl of Carbachol at 3× the EC80 for each muscarinic subtype. Alternatively, the compounds can be co-applied simultaneously with the agonist. In both assay modes, the fluorescence is recorded for 60 sec (excitation wavelength is […] and emission wavelength 540 nm) using the FLIPR 3 instrument.
The potency, efficacy and selectivity of the muscarinic compounds were evaluated by screening the compound activity across the whole family (M1 to M5 cells). Compounds were also screened for activity on other proteins such as other GPCRs and ion channels to determine selectivity on M4 receptors.
Examples of activities and efficacies of the muscarinic compounds of formulae (I, Ia, Ib, and II) on modulating M1, M2, M3 and M4 receptors are shown below in Table 3. […]

M1 muscarinic receptor = molecular target: T4, M1 muscarinic receptor (Homo sapiens, UniProt P11229); test: Functional mobilization of intracellular calcium (FLIPR), M1-CHO cells; settings: for Emax: 100% efficacy = maximum response obtained with the Carbachol control; for M1 Activity: M1-CHO cells, calcium mobilization (FLIPR)
T4 construct: expressed in transfected cells; host or cells: CHO (M1-CHO)
T4 sequence (P11229 1-460): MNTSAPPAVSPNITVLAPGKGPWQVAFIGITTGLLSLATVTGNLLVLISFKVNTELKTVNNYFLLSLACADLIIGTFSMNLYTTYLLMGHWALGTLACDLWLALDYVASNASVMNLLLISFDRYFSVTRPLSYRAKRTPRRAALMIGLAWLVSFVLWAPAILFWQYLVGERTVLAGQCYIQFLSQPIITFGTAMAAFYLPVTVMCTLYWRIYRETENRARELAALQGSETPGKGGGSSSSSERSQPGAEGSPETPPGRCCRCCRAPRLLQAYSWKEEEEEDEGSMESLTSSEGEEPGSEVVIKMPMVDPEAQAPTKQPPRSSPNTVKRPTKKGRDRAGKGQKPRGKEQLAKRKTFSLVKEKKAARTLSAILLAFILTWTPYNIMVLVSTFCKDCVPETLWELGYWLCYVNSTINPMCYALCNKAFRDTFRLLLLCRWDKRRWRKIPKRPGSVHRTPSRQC
How it was run: as §1

SMILES	Emax (M2 muscarinic receptor)	M2 Activity (M2 muscarinic receptor)	Emax (M4 muscarinic receptor)	M4 Activity (M4 muscarinic receptor)	Emax (M3 muscarinic receptor)	M3 Activity (M3 muscarinic receptor)	Emax (M1 muscarinic receptor)	M1 Activity (M1 muscarinic receptor)
COc1ccc(-c2ccc(C(N)=O)cc2)cc1C1CCN([C@H]2C[C@H]3CC[C@H]2C3)CC1 [Compound 6]	< 25%	+ (activity was measured to be greater than 5.0 μM)	< 25%	+ (activity was measured to be greater than 5.0 μM)	< 25%	+ (activity was measured to be greater than 5.0 μM)	< 25%	+ (activity was measured to be greater than 5.0 μM)
COc1ccc(-c2ccc(C(C)=O)cc2)cc1C1CCN([C@H]2C[C@H]3CC[C@H]2C3)CC1 [Compound 7]	< 25%	+ (activity was measured to be greater than 5.0 μM)	25 to 100%	++ (activity was measured to be from 1.0 μM to 5.0 μM)	< 25%	+ (activity was measured to be greater than 5.0 μM)	< 25%	+ (activity was measured to be greater than 5.0 μM)
COc1ccc(-c2ccc(C(=O)N3CCOCC3)cc2)cc1C1CCN([C@H]2C[C@H]3CC[C@H]2C3)CC1 [Compound 8]	< 25%	+ (activity was measured to be greater than 5.0 μM)	< 25%	+ (activity was measured to be greater than 5.0 μM)	< 25%	+ (activity was measured to be greater than 5.0 μM)	< 25%	+ (activity was measured to be greater than 5.0 μM)
COc1ccc(Cl)cc1C1CCN(C2CCCCC2)CC1 [Compound 9]	25 to 100%	+++ (activity was measured to be less than 1.0 μM)	25 to 100%	+++ (activity was measured to be less than 1.0 μM)	< 25%	+ (activity was measured to be greater than 5.0 μM)	25 to 100%	+++ (activity was measured to be less than 1.0 μM)
CNC(=O)c1ccc(-c2ccc(OC)c(C3CCN(C4CCOCC4)CC3)c2)cc1Cl [Compound 11]	< 25%	+ (activity was measured to be greater than 5.0 μM)	25 to 100%	++ (activity was measured to be from 1.0 μM to 5.0 μM)	< 25%	+ (activity was measured to be greater than 5.0 μM)	< 25%	+ (activity was measured to be greater than 5.0 μM)
O=C(COc1ccccc1C1CCN([C@H]2C[C@H]3CC[C@H]2C3)CC1)c1ccc(F)cc1 [Compound 12]	25 to 100%	+ (activity was measured to be greater than 5.0 μM)	25 to 100%	++ (activity was measured to be from 1.0 μM to 5.0 μM)	< 25%	+ (activity was measured to be greater than 5.0 μM)	< 25%	+ (activity was measured to be greater than 5.0 μM)
COc1ccccc1-c1ccc(OC)c(C2CCN([C@H]3C[C@H]4CC[C@H]3C4)CC2)c1 [Compound 13]	< 25%	+ (activity was measured to be greater than 5.0 μM)	< 25%	+ (activity was measured to be greater than 5.0 μM)	< 25%	+ (activity was measured to be greater than 5.0 μM)	< 25%	+ (activity was measured to be greater than 5.0 μM)
CCOC(=O)N1CCC(CN2CCC(c3cc(Cl)ccc3OC)CC2)CC1 [Compound 14]	25 to 100%	+++ (activity was measured to be less than 1.0 μM)	25 to 100%	+++ (activity was measured to be less than 1.0 μM)	< 25%	+ (activity was measured to be greater than 5.0 μM)	25 to 100%	+++ (activity was measured to be less than 1.0 μM)
